From patent US20080138463A1, “Lactobacillus buchneri strain LN5689 and its use to improve aerobic stability of silage” (Pioneer Hi-Bred International, Inc., priority 2006, published 2008)

How the values were obtained:
[1] = Aerobic stability of grass silage (method of Honig); set-up: species or system ryegrass
Method: Second cut ryegrass was harvested at PLNC. The grass was determined to have an approximate dry matter of 35%.
Inoculation: Individual strains were supplied as fresh grown overnight culture. Cultures were adjusted to a standard concentration of 5.0×10^7 CFU/mL and applied using a syringe at a rate of 2.2 mL/kg of forage. The application rate for all strains was 1.1×10^5 CFU/g forage. Propionic acid (88%) was applied at a rate of 4.4 mL/kg fresh forage.
PVC Silos: PVC silos were filled at a packing density of 0.288 kg DM/silo (100 kg DM/m^3); approximately 0.82-0.95 kg/silo. Silos were air infused for 24 hours on days 28 and 42, and opened after 50-60 days of ensiling.
Aerobic Stability: The method of Honig (Proc. Of the Eurobac. Conf., P. Lingvall and S. Lindgren (ed.) (12-16 Aug. 1986) Swed. Univ. of Agric. Sci. Grass and Forage Report No. 3-1990. Pp. 76-81. Uppsala, Sweden.) was used for measuring aerobic stability (see Table 1). ROT is defined as the time, in hours, for the silage to heat 1.7° C. after exposure to air. Cumm_DD is the integral value of the area between the time ROT is attained and the end of the experiment. Aerobic dry matter loss (% dry matter) was determined relating the increase in temperature and the time to energy losses occurring in the silage.

[2] = pH of grass silage after ensiling; assay type: physicochemical, ryegrass; conditions: for pH: PVC silos
Method: Second cut ryegrass was harvested at PLNC. The grass was determined to have an approximate dry matter of 35%. Inoculation: Individual strains were supplied as fresh grown overnight culture. Cultures were adjusted to a standard concentration of 5.0×10^7 CFU/mL and applied using a syringe at a rate of 2.2 mL/kg of forage. The application rate for all strains was 1.1×10^5 CFU/g forage. Propionic acid (88%) was applied at a rate of 4.4 mL/kg fresh forage. PVC Silos: PVC silos were filled at a packing density of 0.288 kg DM/silo (100 kg DM/m^3); approximately 0.82-0.95 kg/silo. Silos were air infused for 24 hours on days 28 and 42, and opened after 50-60 days of ensiling.

[3] = average across replicate studies A, B, C

CCC(=O)O [Propionic Acid, Propionic acid]
Aerobic deterioration compared with control grass silages [1]: significantly less aerobic deterioration than the control
Improvement of aerobic stability over the control ([1]; LN5689 1.1×10^5 CFU/g forage, propionic acid (88%) 4.4 mL/kg): 96 h
Aerobic Dry Matter Loss Avg. [1, 3]: 0.43 % dry matter
ROT Avg. [1, 3]: 127 h
Aerobic Dry Matter Loss ([1]; replicate study A): 0.29 % dry matter
ROT (time for the silage to heat 1.7° C. after exposure to air) ([1]; replicate study A): 137 h
Aerobic Dry Matter Loss ([1]; replicate study B): 0 % dry matter
ROT (time for the silage to heat 1.7° C. after exposure to air) ([1]; replicate study B): 160 h
Aerobic Dry Matter Loss ([1]; replicate study C): 1.01 % dry matter
ROT (time for the silage to heat 1.7° C. after exposure to air) ([1]; replicate study C): 86 h
pH ([2]; replicate study A): 4.03
pH ([2]; replicate study B): 4.17
pH ([2]; replicate study C): 4.18
pH Avg. [2, 3]: 4.13
